According to patent publication US7371768B2, “Pyrazol derivatives, pest control agent comprising the same as active ingredient, and process for producing the same” (Nihon Nohyaku Co., Ltd., priority 2000, dated 2008):
Where two headings read alike, the source gives them in different places.

Columns and labels:
Cat Flea = assay: Insecticidal effect on cat flea, treated filter; format: in vivo; details: 0.7 mg/filter; mortality investigated on 1st day and 2nd day after treatment
Experimental: Onto a round filter (diameter: 10 cm) was added dropwise 0.7 ml of an agent solution diluted to a predetermined concentration. After drying, the filter was placed on the bottom of a cylinder (diameter: 10 cm×height: 30 cm). Ten fleas were set free therein and the mortality was investigated on 1st day and 2nd day after the treatment to calculate a death rate (%) based on the results. The results are shown in Table 7 (the compound numbers in the table correspond to the numbers in Table 1).

Plutella xylostella = assay: Insecticidal effect on larvae of diamond back moth, cabbage leaf disc dip; format: in vivo; details: 500 ppm, 3-instar larvae, 25° C., after 4 days, agonizing insect counted as 1/2 dead
Experimental: A disc (diameter: 6 cm) cut out of a cabbage leaf was for 1 minute in an aqueous dilution of the agricultural and horticultural insecticide of the present invention prepared in accordance with Formulation Example 1, then air-dried, and placed in a plastic cup (inner diameter: 7 cm). Five 3-instar larvae of Plutella xylostella were set free in the cup (duplicates at a concentration). The cup was kept in a constant temperature room at 25° C., and the death and agony of the larvae were investigated after 4 days from the treatment to obtain a death rate (%) taking an agonizing insect as a ½ dead insect. The results are shown in Table 3 (the compound numbers in the following table below correspond to the numbers in Table 1).

Callosobruchus chinensis = assay: Insecticidal effect on imagoes of adzuki bean weevil, spray test; format: in vivo; details: 500 ppm, sprayed, 25° C., after 4 days, agonizing insect counted as 1/2 dead
Experimental: Two adzuki beans were put in a glass cylinder (inner diameter: 3 cm×length: 15 cm), and 10 imagoes of Callosobruchus chinensis were set free therein. An agricutural and horticultural insecticide of the present invention was prepared in accordance with Formulation and diluted with water, and 0.3 ml of the resulting dilution was sprayed in the above glass cylinder with a spray tower (manufactured by Mizuho Rika) (duplicates at a concentration). The cylinder was kept in temperature room at 25° C., and the mortality and agony of thee larvae were investigated after 4 days from the treatment to obtain a death rate (%) taking an agonizing insect as a ½ dead insect. The results obtained are shown in Table 4 (the compound numbers in the table correspond to the numbers in Table 1).

Nilaparvata lugens [1] = assay: Insecticidal effect on larvae of brown rice planthopper through systemic activity (root uptake); format: in vivo; details: for Death rate (%) 0.8 ppm: 0.8 ppm agent solution at rice roots; for Death rate (%) 0.8 ppm / Death rate (%) 3.1 ppm: larvae placed after 3 days, 4th day, 25° C.; for Death rate (%) 3.1 ppm: 3.1 ppm agent solution at rice roots; for insecticidal activity through systemic property, in words: summary of Table 6
Experimental: Roots of young rice seedlings (height: about 10 cm) planted in a plastic cup were washed with water and soil was washed away so as not to damage the fine roots. The stem was pinched by a urethane tip (diameter: 3 cm, height: 2 cm) having a cut line and the roots were inserted into an Erlenmeyer flask to which 50 ml of an agent solution (an aqueous dilution of the agricultural and horticultural insecticide of the present invention prepared in accordance with Formulation Example 1) was placed beforehand (2 to 3 young rice seedlings/flask). The urethane chip was wedged into the mouse of the flask to fix the rice seedlings. A glass tube (diameter: 3 cm, height: 5 cm) was placed thereon, wedged into the urethane chip, and fixed with a tape. The flask in such state was kept in a constant temperature room at 25° C. for 3 days. Five larvae of Nilaparvata lugens were placed in the glass tube and then the tube was capped with a urethane chip, followed by keeping in the constant temperature room at 25° C. (duplicates at a concentration). The mortality and agony of the larvae were investigated on 4th day after the treatment to obtain a death rate (%) taking an agonizing insect as a ½ dead insect. This test was carried out on two agent solutions different in the concentration of the active ingredient. The results are shown in Table 6 (the compound numbers in the table correspond to the numbers in Table 1).
Additionally, as reference compounds, Compounds I, II and III described in JP-A-10-338676 were similarly tested.

[2] = system: Chinese hamster lung fibroblast line V79; assay: In vitro intercellular metabolic cooperation inhibition test (IMC); format: cell-based
Experimental: In this Test Example, using an inhibitory action of gap-junctional intercellular communication as an index, the existence of carcinogenicity (tumor-promoting action) of a compound was investigated.
In this test, a mixed culture system of Chinese hamster lung fibroblast line V79 (hgprt+) having hypoxanthine-guanine phosphoribosyltransferase activity and cells having no such activity (hgprt−) was treated by adding thereto the following compounds together with 6-thioguanine (6-TG). When the intercellular communication is normal, the toxic metabolite of 6-TG formed in hgprt+ cells (6-TG sensitive) is transferred into hgprt− cells (6-TG resistant) through gap junction, so that both of the cells die. On the other hand, when the intracellular communication is inhibited by the test compound, only the hgprt− cells survive and form colonies.

Nilaparvata lugens [3] = assay: Insecticidal effect on larvae of brown rice planthopper, spray test; format: in vivo; details: 500 ppm, sprayed, 4th instar larvae, 25° C., after 5 days; agonizing insect counted as 1/2 dead
Experimental: A rice seedling was planted in a glass cylinder (inner diameter: 3 cm×length: 17 cm), and five 4th instar larvae of Nilaparvata lugens were set free therein. An agricultural and horticultural insecticide of the present invention was prepared in accordance with Formulation Example 3 and diluted with water, and 0.5 ml of the resulting dilution was sprayed into the above glass cylinder with a spraying tower (manufactured by Mizuho Rika) (duplicates at a concentration). The cylinder was kept in a constant temperature room at 25° C., and the mortality and agony of the larvae were investigated after 5 days from the treatment to obtain a death rate (%) taking an agonizing insect as a ½ dead insect. The results obtained are shown in Table 2 (the compound numbers in the table correspond to the numbers in Table 1).

Myzus persicae = assay: Insecticidal effect on larvae of green peach aphid, leaf soak; format: in vivo; details: 500 ppm, leaves soaked about 5 seconds, 25° C., 4th day after treatment
Experimental: Water was put in a screw bottle (volume: 10 ml), and a leaftalk of Japanese radish was placed therein and then inoculated with 5 to 6 insects of Myzus persicae per leave. After the inoculation, the bottle was put in a glass cylinder (diameter: 3.5 cm; height: 15 cm, with a mesh cover), and the insects were let to proliferate in a constant temperature room kept at 25° C. for 3 days. The imagoes on the leaves were removed, and the leaves were soaked in an aqueous dilution of an agricultural and horticultural insecticide of the present invention prepared in accordance with Formulation Example 3 (for about 5 seconds) and then returned into the glass cylinder (duplicates at a concentration). The cylinder was kept in the constant temperature room at 25° C., and the number of the insects on the leaves was counted on the 4th day after the treatment to obtain a death rate (%) based on the results. The results obtained are shown in Table 5 (the compound numbers in the table correspond to the numbers in Table 1).

Compound	Death rate (%) (Cat Flea)	Death rate (%) (Plutella xylostella)	Death rate (%) (Callosobruchus chinensis)	Death rate (%) 0.8 ppm (Nilaparvata lugens [1])	Death rate (%) 3.1 ppm (Nilaparvata lugens [1])	IMC test result (inhibition of gap-junctional intercellular communication, index of tumor-promoting action) ([2]; V79 hgprt+/hgprt- mixed culture with 6-thioguanine)	Death rate (%) (Nilaparvata lugens [3])	Death rate (%) (Myzus persicae)	insecticidal activity through systemic property, in words (Nilaparvata lugens [1])	IMC test result (inhibition of gap-junctional intercellular communication, index of tumor-promoting action) [2]	colony forming rate ([2]; at 7.5 and 15 μg/ml, V79 hgprt+/hgprt- mixed culture with 6-thioguanine)
N#Cc1nn(-c2c(Cl)cc(C(F)(F)F)cc2Cl)c(NCc2ccccn2)c1SC(F)F [Compound No. 2, 1-(2,6-dichloro-4-trifluoromethylphenyl)-4-difluoromethylthio-5-(pyridin-2-ylmethylamino)pyrazole-3-carbonitrile]	100%	100%	100%	100%	100%	negative	100%	100%	–	–	–
N#Cc1nn(-c2c(Cl)cc(C(F)(F)F)cc2Cl)c(NCc2ccncc2)c1SCF [Compound No. 1, 1-(2,6-dichloro-4-trifluoromethylphenyl)-4-fluoromethylthio-5-(pyridin-4-ylmethylamino)pyrazole-3-carbonitrile]	–	100%	100%	100%	100%	–	100%	100%	–	–	–
CSc1c(C#N)nn(-c2c(Cl)cc(C(F)(F)F)cc2Cl)c1NCc1ccncc1 [Compound I]	–	–	–	100%	100%	–	–	–	insecticidal activity through a high systemic property	positive	significant increase
N#Cc1nn(-c2c(Cl)cc(C(F)(F)F)cc2Cl)c(NCc2ccccn2)c1SC(F)(F)F [III]	–	–	–	0%	0%	–	–	–	obviously inferior effect	–	–
N#Cc1nn(-c2c(Cl)cc(C(F)(F)F)cc2Cl)c(NCc2ccncc2)c1SC(F)(F)F [II]	–	–	–	20%	50%	–	–	–	obviously inferior effect	–	–
